Measured values from patent US20240091324A1, “GASTROINTESTINAL HEALTH COMPOSITION” (priority 2019, published 2024).

How the values were obtained:
Format in all cases: cell-based, human
[1] = tested on: IL-8 release from Caco-2 monolayers; assay: Release of IL-8 from polarised Caco-2 monolayers stimulated with LPS, TNF-α, IFN-β; conditions: for % increase in anti-inflammatory activity compared to equivalent formulation without bromelain (difference of means): plus 80 ug/ml bromelain
Procedure: Inflammatory model of Caco-2 polarised monolayer stimulated with inflammatory mediators LPS, TNF-α, IFN-β: Polarised Caco-2 models were generated as previously described. When cell cultures reached a baseline TER of >1000/cm^2, the monolayers were stimulated by addition of 0.6 ml containing 50 ng/ml IFN-β, 10 μg/ml LPS and 5 ng/ml TNFα to the basolateral compartment. Immediately after the addition of the stimulation cocktail 0.25 ml of GaRP±0-80 μg/ml bromelain was applied to the apical compartment. After the 24 h incubation culture supernatants from the apical side were collected for quantitation of IL-8.
The human colorectal adenocarcinoma cell-line C2BBe1 was grown and maintained in Dulbecco's modified Eagle's medium (DMEM) supplemented with 10% v/v fetal bovine serum (FBS), 4 mM L-glutamine, 100 U/ml penicillin and […] streptomycin. All experiments were conducted on C2BBe1 cells within 12 passages after thawing.
In an experiment to evaluate the anti-inflammatory effect of bromelain or various GaRP formulations, 0.25 ml of test samples was applied to the apical side for 24 h, at the same time 0.6 ml of a cocktail containing 50 ng/ml IFN+10 ug/ml LPS+5 ng/ml TNF was added to the basolateral side in this model. After the 24 h incubation culture supernatants from the apical side were collected and IL-8 quantitated by ELISA.

Macrophage = assay: Observed therapeutic effective dose determined in the in vitro experiments (Table 4)
Procedure: (§1) The observed therapeutic effective dose was determined in the in vitro experiments described herein.
(§2) Table 4 summarises the observed therapeutic effective dose for each GaRP formulation component.

Enterocyte = assay: as above
Procedure: as §1, §2

[2] = formulation or component plus 80 ug/ml bromelain, 24 h
[3] = without bromelain, test sample apical 24 h, IFN+LPS+TNF cocktail basolateral

SMILES	% inhibition of the release of IL-8 Median ± SEM [1, 2] [%]	% increase in anti-inflammatory activity compared to equivalent formulation without bromelain (difference of means) [1] [%]	% inhibition of the release of IL-8 Median ± SEM [1, 3] [%]	observed therapeutic effective dose, Target cell Macrophage (pg/cell) (Macrophage)	observed therapeutic effective dose, Target cell Enterocyte (pg/cell) (Enterocyte)
CSCC[C@H](N)C(=O)O [L-methionine]	73 ± 10	53	20 ± 5		
NC(=O)CC[C@H](N)C(=O)O [L-glutamine]	83 ± 1	72	11 ± 7		
N[C@@H](Cc1c[nH]c2ccccc12)C(=O)O [L-tryptophan]	76 ± 2	62	14 ± 7		
N=C(N)NCCC[C@H](N)C(=O)O [L-arginine]	73 ± 8	67	6 ± 8		
C[C@@H](O)[C@H](N)C(=O)O [L-threonine]	73 ± 11	55	18 ± 1	300	15
